Measured values as given in PMC8568530, “Inhibition of Vascular Smooth Muscle and Cancer Cell Proliferation by New VEGFR Inhibitors and Their Immunomodulator Effect: Design, Synthesis, and Biological Evaluation” (Oxidative Medicine and Cellular Longevity, 2021).

Tests used:
TNF-α = TNF-α in HepG-2 supernatant (ELISA); assay type: cell-based, human
Excerpt: (1) Estimation of Human Tumor Necrosis Factor Alpha (TNF-α) in HepG-2 Supernatant. […] Celecoxib, a potent inhibitor of TNF-α-induced cytokine expressions, was used as a positive control. […] Among the tested compounds, compound 7a caused a remarkably significant reduction in TNF-α levels (87%) in comparison to celecoxib (86%).
The levels of TNF-α in cell culture supernatants were estimated by the ELISA technique according to the reported procedure.

[1] = system: WI-38 cell line (normal human lung fibroblasts); assay: MTT cytotoxicity against normal cells WI-38; assay type: cell-based; details: normal human lung fibroblasts WI-38
Method: The cytotoxicity values of the synthesized compounds against the WI-38 cell line (normal human lung fibroblasts) were also evaluated in vitro.
(§1) The antiproliferative activity of the synthesized compounds was evaluated using MTT protocol as described (Supplementary data (available here)).

VEGFR-2 = VEGFR-2 (Homo sapiens, UniProt P35968); assay: In vitro VEGFR-2 enzyme inhibition assay; assay type: biochemical; details: read-out: IC50 against VEGFR-2
Sequence of VEGFR-2 (P35968 20-1356): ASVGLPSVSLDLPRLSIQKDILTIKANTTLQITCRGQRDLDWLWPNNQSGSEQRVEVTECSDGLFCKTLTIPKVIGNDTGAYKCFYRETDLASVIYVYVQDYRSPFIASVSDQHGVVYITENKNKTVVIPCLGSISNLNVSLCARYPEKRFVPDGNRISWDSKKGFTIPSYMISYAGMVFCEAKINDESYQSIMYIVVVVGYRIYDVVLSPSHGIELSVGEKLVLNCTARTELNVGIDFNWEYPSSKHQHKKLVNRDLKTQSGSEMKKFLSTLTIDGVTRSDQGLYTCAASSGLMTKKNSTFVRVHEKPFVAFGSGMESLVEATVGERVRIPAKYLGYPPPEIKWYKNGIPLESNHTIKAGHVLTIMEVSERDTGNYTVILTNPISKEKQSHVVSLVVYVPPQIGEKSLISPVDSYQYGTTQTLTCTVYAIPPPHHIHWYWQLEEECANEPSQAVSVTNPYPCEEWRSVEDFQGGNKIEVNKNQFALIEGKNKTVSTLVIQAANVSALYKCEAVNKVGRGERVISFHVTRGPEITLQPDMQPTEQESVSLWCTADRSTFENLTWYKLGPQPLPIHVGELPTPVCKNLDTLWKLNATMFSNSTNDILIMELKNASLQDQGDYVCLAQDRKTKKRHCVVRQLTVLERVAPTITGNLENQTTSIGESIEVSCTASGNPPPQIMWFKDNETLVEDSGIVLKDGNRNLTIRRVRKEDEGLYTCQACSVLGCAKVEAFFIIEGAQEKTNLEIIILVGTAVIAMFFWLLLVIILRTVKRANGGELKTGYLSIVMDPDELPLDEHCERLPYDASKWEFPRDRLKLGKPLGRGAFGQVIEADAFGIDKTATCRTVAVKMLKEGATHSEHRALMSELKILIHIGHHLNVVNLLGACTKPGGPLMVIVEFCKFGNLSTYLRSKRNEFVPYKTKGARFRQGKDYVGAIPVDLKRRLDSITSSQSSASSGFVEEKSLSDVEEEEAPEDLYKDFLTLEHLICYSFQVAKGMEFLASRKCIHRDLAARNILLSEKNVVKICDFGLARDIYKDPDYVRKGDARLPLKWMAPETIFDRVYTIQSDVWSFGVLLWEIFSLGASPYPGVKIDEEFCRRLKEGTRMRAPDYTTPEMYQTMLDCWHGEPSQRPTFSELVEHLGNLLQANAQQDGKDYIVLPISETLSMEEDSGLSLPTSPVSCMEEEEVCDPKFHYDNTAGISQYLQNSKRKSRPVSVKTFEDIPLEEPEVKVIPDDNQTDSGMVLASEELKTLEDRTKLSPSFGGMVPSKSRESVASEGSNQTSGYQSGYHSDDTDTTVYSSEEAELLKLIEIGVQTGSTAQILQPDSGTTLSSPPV

Bcl-2 = Bcl-2 level in HepG-2 cells; assay type: cell-based, human; details: for Bcl-2 Conc.: HepG-2 cells treated with compound; for Bcl-2 Fold: HepG-2 cells, versus control
Excerpt: (§2) (2) Effects on Bcl-2 Family Proteins. The Bcl-2 family proteins are vital regulators of apoptosis cell death. Members of this family include the proapoptotic factor Bax which promotes cell death and the prosurvival (antiapoptotic) Bcl-2 which suppresses cell death. […] Results are expressed in Table 3.
(§3) (2) Effects on Bcl-2 Family Proteins. […] (Supplementary data).

HepG-2 = assay: MTT antiproliferative assay, HepG-2; assay type: cell-based; details: Homo sapiens, HepG2, hepatocellular carcinoma HepG-2
Method: (§4) The in vitro antiproliferative activities of the newly synthesized compounds were evaluated against a panel of three human tumor cell lines, namely, breast cancer (MCF-7), hepatocellular carcinoma (HepG-2), and colorectal carcinoma (HCT-116) using the standard MTT method. The tested cell lines were selected depending on their VEGF overexpression. Sorafenib, the lead drug, was coassayed as a positive control.
as §1

HCT-116 = assay: MTT antiproliferative assay, HCT-116; assay type: cell-based; details: Homo sapiens, colorectal carcinoma HCT-116
Method: as §4, §1

MCF-7 = assay: MTT antiproliferative assay, MCF-7; assay type: cell-based; details: Homo sapiens, MCF7, breast cancer MCF-7
Method: as §4, §1

BAX = BAX level in HepG-2 cells; assay type: cell-based, human; details: for BAX Conc.: HepG-2 cells treated with compound; for BAX Fold: HepG-2 cells, versus control
Excerpt: as §2, §3

caspase-3 = assay: Active caspase-3 level in HepG-2 cells; assay type: cell-based, human; details: for Caspase 3 Conc.: HepG-2 cells treated with compound; for Caspase 3 Fold: HepG-2 cells, versus control
Excerpt: (1) Effects on the Levels of Active Caspase-3. A significant mechanism by which anticancer agents can affect cancer cells is apoptosis. Apoptosis is a process of automated cell death. The apoptosis mechanism is typically mediated by a group of proteases called caspases. Caspase-3 is activated in every mammalian cell type provoking the cell to die, considered one of the apoptosis marks.
(1) Effects on the Levels of Active Caspase-3. […] (Supplementary data).

| SMILES | TNF-α % inhibition (TNF-α) | IC50 [1] | IC50 (VEGFR-2) | Bcl-2 Conc. (Bcl-2) | Bcl-2 Fold (Bcl-2) | IC50 (HepG-2) | IC50 (HCT-116) | IC50 (MCF-7) | BAX Conc. (BAX) | BAX Fold (BAX) | Caspase 3 Conc. (caspase-3) | Caspase 3 Fold (caspase-3) | melting point |
| --- | --- | --- | --- | --- | --- | --- | --- | --- | --- | --- | --- | --- | --- |
| O=C(Nc1ccc(C(=O)NC2CCCCC2)cc1)c1cccnc1 [Compound 5, N-(4-(Cyclohexylcarbamoyl)phenyl)nicotinamide] | 85% | 61.4 µM | 2.46 µM | 1.35 pg/mL | 0.25 fold | 3.29 µM | 1.6 µM | 4.66 µM | 232.7 pg/mL | 10.78 fold | 345.5 pg/mL | 6.72 fold | – |
| O=C(NCc1ccccc1)c1ccc(NC(=O)c2cccnc2)cc1 [Compound 6, N-(4-(Benzylcarbamoyl)phenyl)nicotinamide] | – | 117 µM | – | – | – | 15.5 µM | 16.4 µM | 18.3 µM | – | – | – | – | 229 to 232 °C |
| COc1ccc(NC(=O)c2ccc(NC(=O)c3cccnc3)cc2)cc1 [Compound 7b, N-(4-((4-Methoxyphenyl)carbamoyl)phenyl)nicotinamide] | 72% | 82.2 µM | 3.45 µM | 1.92 pg/mL | 0.36 fold | 2.12 µM | 2.54 µM | 1.25 µM | 257.5 pg/mL | 11.93 fold | 397.61 pg/mL | – | – |
| COc1ccccc1NC(=O)c1ccc(NC(=O)c2cccnc2)cc1 [Compound 7c, N-(4-((2-Methoxyphenyl)carbamoyl)phenyl)nicotinamide] | – | 137 µM | – | – | – | 19.4 µM | 15.3 µM | 11.8 µM | – | – | – | – | 185 to 187 °C |
| O=C(Nc1ccccc1)c1ccc(NC(=O)c2cccnc2)cc1 [Compound 7d, N-(4-(Phenylcarbamoyl)phenyl)nicotinamide] | – | 144 µM | – | – | – | 29.1 µM | 31.5 µM | 23.1 µM | – | – | – | – | 232 to 235 °C |
| O=C(Nc1ccc(Cl)cc1)c1ccc(NC(=O)c2cccnc2)cc1 [Compound 7e, N-(4-((4-Chlorophenyl)carbamoyl)phenyl)nicotinamide] | – | 143 µM | – | – | – | 22.4 µM | 17.8 µM | 13.4 µM | – | – | – | – | 272 to 274 °C |
| O=C(Nc1ccc(C(=O)Nc2ccc(Cl)cc2Cl)cc1)c1cccnc1 [Compound 7g, N-(4-((2,4-Dichlorophenyl)carbamoyl)phenyl)nicotinamide] | – | 132 µM | – | – | – | 26.6 µM | 31.7 µM | 42.1 µM | – | – | – | – | 189 to 192 °C |
| O=C(Nc1ccc(C(=O)Nc2ccccc2[N+](=O)[O-])cc1)c1cccnc1 [Compound 7i, N-(4-((2-Nitrophenyl)carbamoyl)phenyl)nicotinamide] | – | 103 µM | – | – | – | 15.2 µM | 18.4 µM | 16.1 µM | – | – | – | – | 198 to 201 °C |
| O=C(Nc1ccc(F)cc1)c1ccc(NC(=O)c2cccnc2)cc1 [Compound 7l, N-(4-((4-Fluorophenyl)carbamoyl)phenyl)nicotinamide] | 74% | 68.2 µM | 3.84 µM | 2.11 pg/mL | 0.39 fold | 2.64 µM | 2.75 µM | 3.5 µM | 226.9 pg/mL | 10.51 fold | 340.42 pg/mL | 6.62 fold | – |
| O=C(NNC(=O)C(F)(F)F)c1ccc(NC(=O)c2cccnc2)cc1 [Compound 10, N-(4-(2-(2,2,2-Trifluoroacetyl)hydrazine-1-carbonyl)phenyl)nicotinamide] | 40% | 78.4 µM | 7.68 µM | 2.72 pg/mL | 0.51 fold | 3.16 µM | 5.49 µM | 3.55 µM | 231.6 pg/mL | 10.73 fold | 334.57 pg/mL | 6.51 fold | – |
| O=C(N/N=C/c1ccc(F)cc1)c1ccc(NC(=O)c2cccnc2)cc1 [Compound 11a, (E)-N-(4-(2-(4-Fluorobenzylidene)hydrazine-1-carbonyl)phenyl)-nicotinamide] | – | 85.1 µM | – | – | – | 15.5 µM | 17.2 µM | 12.3 µM | – | – | – | – | 263 to 265 °C |
| O=C(N/N=C/c1ccccc1)c1ccc(NC(=O)c2cccnc2)cc1 [Compound 11b, (E)-N-(4-(2-Benzylidenehydrazine-1-carbonyl)phenyl)-nicotinamide] | – | 72.3 µM | – | – | – | 17.6 µM | 13.4 µM | 15.5 µM | – | – | – | – | 260 to 262 °C |
| COc1ccc(/C=N/NC(=O)c2ccc(NC(=O)c3cccnc3)cc2)cc1 [Compound 11d, (E)-N-(4-(2-(4-Methoxybenzylidene)hydrazine-1-carbonyl)phenyl)-nicotinamide] | 81% | 50.3 µM | 2.74 µM | 1.72 pg/mL | 0.32 fold | 2.23 µM | 1.94 µM | 4.15 µM | 237.9 pg/mL | 11.02 fold | 391.23 pg/mL | – | – |
| O=C(N/N=C/c1c(Cl)cccc1Cl)c1ccc(NC(=O)c2cccnc2)cc1 [Compound 11e, (E)-N-(4-(2-(2,6-Dichlorobenzylidene)hydrazine-1-carbonyl)phenyl)-nicotinamide] | – | 80.1 µM | – | – | – | 23.9 µM | 14.5 µM | 18.2 µM | – | – | – | – | 283 to 285 °C |
| O=C(N/N=C/c1ccc(O)cc1)c1ccc(NC(=O)c2cccnc2)cc1 [Compound 11h, (E)-N-(4-(2-(4-Hydroxybenzylidene)hydrazine-1-carbonyl)phenyl)-nicotinamide] | – | 103 µM | – | – | – | 31.1 µM | 34.9 µM | 20.2 µM | – | – | – | – | 256 to 259 °C |
| O=C(CSc1nnc(-c2cccnc2)o1)NCc1ccccc1 [Compound 18c, N-Benzyl-2-((5-(pyridin-3-yl)-1,3,4-oxadiazol-2-yl)thio)acetamide] | – | 92.1 µM | – | – | – | 8.59 µM | 21.7 µM | 19.4 µM | – | – | – | – | 167 to 169 °C |
| CNC(=O)c1cc(Oc2ccc(NC(=O)Nc3ccc(Cl)c(C(F)(F)F)c3)cc2)ccn1 [Sorafenib, reference compound] | – | – | – | – | – | 3.76 µM | 5.28 µM | 4.32 µM | – | – | – | – | – |
